From PubChem BioAssay (NCI)
Where “and” joins values, the source holds several entries; their conditions need not be identical. Identical values can stand only once.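 Interpolation was linear, between the two tested concentrations surrounding the appropriate level; five concentrations were tested over 48 hours in 96-well plates. GI50: concentration for 50% inhibition of growth. TGI is the concentration that stops growth completely.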

Tests used:
Experiment in all cases: growth of human tumour cells (NCI), 48 h
U251 CNS = test system: U251 CNS
HOP-92 NSCLC = test system: HOP-92 NSCLC
NCI-H460 lung = test system: NCI-H460 lung
SF-539 CNS = test system: SF-539 CNS
HT29 colon = test system: HT29 colon
SN12C renal = test system: SN12C renal
OVCAR-5 ovarian = test system: OVCAR-5 ovarian
A549 NSCLC = test system: A549 NSCLC
NCI-H23 lung = test system: NCI-H23 lung
OVCAR-4 ovarian = test system: OVCAR-4 ovarian

| SMILES | GI50 (U251 CNS) | TGI (U251 CNS) | GI50 (HOP-92 NSCLC) | TGI (HOP-92 NSCLC) | GI50 (NCI-H460 lung) | TGI (NCI-H460 lung) | GI50 (SF-539 CNS) | TGI (SF-539 CNS) | GI50 (HT29 colon) | TGI (HT29 colon) | GI50 (SN12C renal) | TGI (SN12C renal) | GI50 (OVCAR-5 ovarian) | TGI (OVCAR-5 ovarian) [µM] | GI50 (A549 NSCLC) | TGI (A549 NSCLC) | GI50 (NCI-H23 lung) | TGI (NCI-H23 lung) | GI50 (OVCAR-4 ovarian) | TGI (OVCAR-4 ovarian) [µM] |
| --- | --- | --- | --- | --- | --- | --- | --- | --- | --- | --- | --- | --- | --- | --- | --- | --- | --- | --- | --- | --- |
| CC(C)(C)c1ccc(S(=O)(=O)N[C@H]2CC[C@H]3[C@@H]4CCc5cc(OS(=O)(=O)O)ccc5[C@H]4CC[C@]23C)cc1 | 1.68 µM | 3.34 µM | 2.11 µM | 5.31 µM | 2.19 µM | 4.79 µM | 1.8 µM | 3.34 µM | 2.19 µM | 4.57 µM | 1.81 µM | 3.58 µM | 1.88 µM | 3.63 | 2.83 µM | 10.2 µM | 2.6 µM | 9.15 µM | 2.49 µM | 9.92 |
| C=C(C)C(=O)O[C@H]1[C@H]2[C@H](OC(=O)[C@H]2C)[C@H](O)[C@@H](C)[C@@H]2C=CC(=O)[C@]21C |  | 12.1 µM |  | 8.89 µM |  | 3.72 µM |  | 16.5 µM |  | 10.7 µM |  | 4.96 µM |  | 54 |  | 12.5 µM |  | 15 µM |  | 19.9 |
| COc1nc2nccc-2c2occn12 |  | > 100 µM |  | > 100 µM |  | > 100 µM |  | > 100 µM |  | > 100 µM |  | > 100 µM |  | > 100 |  | > 100 µM |  | > 100 µM |  | > 100 |
| CN(C)CCOc1ccc2c(c1)C/C(=C/c1ncc([N+](=O)[O-])n1C)C2=O |  | 20.5 µM |  | 5.77 µM |  | 4.05 µM |  | 21.2 µM |  | 4.92 µM |  | 9.78 µM |  | 14.8 |  | 7.74 µM |  | 4.94 µM |  | 5.84 |
| COc1cc(-c2cn(-c3ccc(Cl)cc3)c(C)c2C(=O)C(F)(F)F)cc(OC)c1OC | > 100 µM | > 100 µM | 2.27 µM | 56 µM | 33.4 µM | > 100 µM | > 100 µM | > 100 µM | 73.2 µM | > 100 µM | 12.7 µM | > 100 µM | > 100 µM | > 100 | 17.9 µM | > 100 µM | 60.5 µM | > 100 µM | 25.5 µM | > 100 |
| CC(=O)[O-].CC(=O)[O-].[NH2-].[Pt+2].c1ccc2cnccc2c1 | 6.26 µM | 20.3 µM | 16.2 µM | 90.6 µM | 26.2 µM | > 100 µM | 4.83 µM | 43.8 µM | 24.5 µM | > 100 µM | 28.6 µM | > 100 µM | > 100 µM | > 100 | 0.147 µM | 15.7 µM | 47.7 µM | > 100 µM | 22.3 µM | > 100 |
| Cc1cc(=O)oc2cc3c(cc12)Oc1ccccc1O3 |  | > 100 µM |  | > 100 µM |  | > 100 µM |  | 56.7 µM |  | > 100 µM |  | > 100 µM |  | > 100 |  | > 100 µM |  | > 100 µM |  | > 100 |
| CCOc1ccc(NCc2cc(OC)c(OC)c(OC)c2)cc1 |  | 19.3 µM and 22.3 µM |  | > 91.6 µM |  | > 100 µM and 58 µM |  | 2.95 µM and 3.25 µM |  | 8.98 µM and 11.8 µM | 1.41 µM and 7.91 µM | > 100 µM | 10.5 µM and 4.43 µM | > 93.8 |  | > 100 µM |  | 31.4 µM and 39.3 µM |  | > 100 |
| COc1ccc(C(C#N)NNc2nc(C)cc(=O)[nH]2)cc1OC (stereo unspecified) |  | > 100 µM |  | > 100 µM |  | > 100 µM |  | > 100 µM |  | > 100 µM |  | > 100 µM |  | > 100 |  | > 100 µM |  | > 100 µM |  | > 100 |
| Oc1ccc(CCCCCCc2ccc(O)cc2)cc1 | 5.61 µM | 19.8 µM | 6.99 µM | 20.5 µM | 5.88 µM | 18.9 µM | 2.46 µM | 13.7 µM | 17 µM | 34.5 µM | 9.22 µM | 24.3 µM | 16.9 µM | 31.4 | 6.62 µM | 23 µM | 7.5 µM | 21.5 µM | 14.4 µM | > 46.9 |
| OCc1ccc(-c2nn(Cc3ccccc3)c3ccccc23)o1 | 8.07 µM and 12.4 µM | 28.5 µM and > 47.6 µM | 10.4 µM and 12.2 µM | 38.9 µM and 38.1 µM | 12.8 µM and 12.2 µM | 29.4 µM and 28.5 µM | 16.2 µM and 18.6 µM | 32.2 µM and 35.5 µM | 15 µM and 32.8 µM | 32.2 µM and > 100 µM | 15.9 µM and 15.1 µM | 35.5 µM and 33.7 µM | 0.564 µM and 0.0852 µM |  | 15.6 µM and 18.5 µM | 47.7 µM and > 56.9 µM | 19.2 µM and 20.9 µM | 58.8 µM and 50.8 µM | 10.2 µM and 28.1 µM | > 100 |
